From patent US20070249591A1, “Biaryl Amino Acids and Their Use in Dna Binding Oligomers” (Spirogen Limited, priority 2004, published 2007)

Tested on: MS2 DNA sequence
Experiment: DNA footprinting study against the MS2 DNA sequence
Type: binding, bacteriophage
Conditions: cleavage pattern on electrophoresis gel
Protocol: In order to assess the binding of test compounds to DNA, a footprinting study against the MS2 DNA sequence was carried out. The sequence is as follows:
and is derived from a bacteriophage.
The footprinting technique in the context of DNA allows the determination of binding sites for drugs or biological macromolecules. It relies on the fact that DNA is cleaved relatively non-specifically by free radicals (e.g. hydroxyl radical footprinting) or enzymes (e.g. DNase I footprinting). Thus if DNA is 32p end labelled on one strand (so that it may be observed autoradiographically) and exposed to the cleavage agent for a certain time, then a laddering pattern may be seen when the resulting fragments are separated by gel electrophoresis (separation on the basis of size). If a compound which binds to DNA is added prior to the cleavage agent then this hinders access of the enzyme or radical to the DNA and blocks cleavage at the molecule binding site. Thus if the compound binds discretely then a specific cleavage block should be seen on the gel relative to the DNA not treated with compound, which is termed the ‘footprint’. (see FIG. 1)

Structure (SMILES): CCOC(=O)c1csc(-c2ccc(NC(=O)c3csc(-c4ccc(NC(=O)CCCN(C)C)cc4)n3)cc2)n1 [Compound 9, Ethyl 2-[4-({2-[4-(4-dimethylaminobutyrylamino)phenyl]thiazole-4-carbonyl}amino)phenyl]thiazole-4-carboxylate]
- coating event: no clear coating event
- specific footprinting activity: no specific footprinting activity
